Laboratory results reported in patent EP3171885B1, “PEPTIDE HYDROLYSATE OF SNAILS, PEPTIDE FRACTIONS, PRODUCTION METHOD, USE AND COMPOSITIONS FOR INHIBITING THE ANGIOTENSIN CONVERTING ENZYME” (Drevet, Pascal, priority 2014, dated 2016).
Where two headings read alike, the source gives them in different places. Where a SMILES comes first, the peptide text is derived from it.

Biological target: enzyme de conversion de l'angiotensine (ECA) (Homo sapiens, UniProt P12821)
Experiment: biochemical
Description: Brièvement, cette méthode repose sur l'hydrolyse du substrat Hippuryl-L-Histidyl-L-Leucine (HHL) par l'ECA pour produire de l'acide hippurique (HA) et de l'Histydil-Leucine. Après incubation à 37°C pendant 30 minutes dans du tampon borate de sodium pH 8,3, la réaction est arrêtée par addition de HCI. La séparation du substrat HHL et du produit HA est réalisé par chromatographie liquide haute pression en phase inversée (RP-HPLC) sur une colonne C18 (Kinetex). L'élution se fait par un mélange d'eau (75% v/v) et d'acétonitrile (25% V/V).
La comparaison entre la concentration de HA produite pour chaque concentration d'échantillon avec celle obtenue sans addition de peptide permet la détermination de l'IC50.
A titre de témoin positif, le captopril est également testé en parallèle de l'hydrolysat, des fractions et des peptides. Le témoin négatif est le substrat HHL seul, sans ECA, dilué dans du tampon borate pH 8,3. L'échantillon est le peptide, la fraction ou l'hydrolysat total à tester.
Le pourcentage d'inhibition de l'ECA est calculé selon la formule suivante : Pourcentage d'inhibition ECA (%) = (ASCHA ([…])−ASCHA (Echantillon))/(ASCHA ([…])−ASCHA (HHL)) × 100 [formula]

[1] = substrate HHL 5 mM, 37°C, 30 minutes, sodium borate buffer pH 8,3, detection at 228 nm, read-out: IC50 (converted)

Chain of enzyme de conversion de l'angiotensine (ECA) (P12821 30-1306): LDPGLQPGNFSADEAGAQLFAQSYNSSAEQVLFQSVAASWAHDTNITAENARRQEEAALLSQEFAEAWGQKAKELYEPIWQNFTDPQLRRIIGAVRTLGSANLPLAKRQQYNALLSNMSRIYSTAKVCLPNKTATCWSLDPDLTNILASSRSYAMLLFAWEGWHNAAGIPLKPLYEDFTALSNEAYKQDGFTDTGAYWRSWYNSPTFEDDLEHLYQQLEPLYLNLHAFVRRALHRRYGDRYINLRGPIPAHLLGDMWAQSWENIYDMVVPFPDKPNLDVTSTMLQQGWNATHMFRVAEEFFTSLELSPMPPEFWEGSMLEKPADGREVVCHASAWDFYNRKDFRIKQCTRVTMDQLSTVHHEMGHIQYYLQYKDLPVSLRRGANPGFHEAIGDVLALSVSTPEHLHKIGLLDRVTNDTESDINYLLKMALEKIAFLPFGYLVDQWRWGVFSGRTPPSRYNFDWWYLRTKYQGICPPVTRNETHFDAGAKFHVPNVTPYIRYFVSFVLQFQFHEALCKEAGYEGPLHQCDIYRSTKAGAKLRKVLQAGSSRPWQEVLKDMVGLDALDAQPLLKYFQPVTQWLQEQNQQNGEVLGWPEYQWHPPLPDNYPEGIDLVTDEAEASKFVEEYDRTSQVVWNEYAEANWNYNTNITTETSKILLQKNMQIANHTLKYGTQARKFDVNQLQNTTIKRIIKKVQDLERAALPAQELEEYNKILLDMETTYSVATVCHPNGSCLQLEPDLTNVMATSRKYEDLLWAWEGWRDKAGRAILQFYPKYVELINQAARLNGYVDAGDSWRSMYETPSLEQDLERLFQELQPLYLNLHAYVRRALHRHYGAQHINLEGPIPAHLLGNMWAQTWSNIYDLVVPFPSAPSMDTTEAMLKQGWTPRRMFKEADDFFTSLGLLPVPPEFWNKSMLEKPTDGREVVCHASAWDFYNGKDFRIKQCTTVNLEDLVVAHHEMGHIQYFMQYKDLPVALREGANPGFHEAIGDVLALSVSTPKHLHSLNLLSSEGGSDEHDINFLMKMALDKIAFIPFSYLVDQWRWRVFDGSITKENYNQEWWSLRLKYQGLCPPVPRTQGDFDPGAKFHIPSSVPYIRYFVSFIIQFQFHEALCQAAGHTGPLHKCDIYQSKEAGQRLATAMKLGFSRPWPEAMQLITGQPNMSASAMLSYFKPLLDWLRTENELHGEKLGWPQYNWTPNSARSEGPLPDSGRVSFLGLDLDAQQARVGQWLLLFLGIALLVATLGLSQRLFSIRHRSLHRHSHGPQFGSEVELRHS

IC50 [1] [µM]	Compound	IC50 [µM]
–	N[C@@H](CO)C(=O)N[C@@H](Cc1ccccc1)C(=O)O [SF, Serine-Phénylalanine]	516
40.3	CC(C)[C@H](N)C(=O)N[C@@H](Cc1ccc(O)cc1)C(=O)O [VY, Valine-Tyrosine] (H-Val-Tyr-OH)	–
1280	N[C@@H](CC(=O)O)C(=O)N[C@@H](Cc1ccccc1)C(=O)O [DF, Acide Aspartique -Phénylalanine] (H-Asp-Phe-OH)	–
